# Results as given in patent US20240182503A1, “MACROCYCLE COMPLEMENT FACTOR B INHIBITORS” (priority 2021, published 2024).
# Biological target: CVF-Bb complex (Homo sapiens (Human), UniProt P00751)
# Assay: biochemical
# Format: biochemical
# Details: not given
# Description: CVF-Bb complex, prepared from purified cobra venom factor, (3 nM) is incubated with a compound of the disclosure at various concentrations for 10 minutes at room temperature in PBS (pH 7.4) containing 10 mM MgCl2 and 0.05% (w/v) CHAPS. Human Complement C3 substrate is added to a final concentration of 1 μM. After 1 hour incubation at room temperature, the enzyme reaction is stopped by addition of a cocktail of concentrated pan-protease inhibitors. The product of the reaction, C3a, is quantified by means of an enzyme-linked-immunosorbent assay and/or denaturing gel electrophoresis (SDS-PAGE). IC50 values are calculated from percentage of inhibition of CVF-Bb activity as a function of test compound concentration.
row,Structure (SMILES),IC50 [nM]
1,"COc1cc(C)c2[nH]ccc2c1CN1CC[C@H]2C[C@H]1c1ccc(C(=O)NS(=O)(=O)C(C)C)cc1OCCCCCCO2 [Ex. 47, (1^2S,1^4S)-N-(isopropylsulfonyl)-11-((5-methoxy-7-methyl-1H-indol-4-yl)methyl)-3,10-dioxa-1(2,4)-piperidina-2(1,2)-benzenacyclodecaphane-2^4-carboxamide]",649
2,"COc1cc(C)c2[nH]ccc2c1CN1CC[C@H]2C[C@H]1c1ccc(C(=O)O)cc1/C=C/CCCCCO2 [Ex. 36, (1^2R,1^4R,E)-1^1-((5-methoxy-7-methyl-1H-indol-4-yl)methyl)-10-oxa-1(2,4)-piperidina-2(1,2)-benzenacyclodecaphan-3-ene-2^4-carboxylic acid]",241
3,"COc1cc(C)c2[nH]ccc2c1CN1CC[C@H]2C[C@H]1c1ccc(C(=O)O)cc1/C=C\CCCCCO2 [Ex. 37, (1^2R,1^4R,Z)-1^1-((5-methoxy-7-methyl-1H-indol-4-yl)methyl)-10-oxa-1(2,4)-piperidina-2(1,2)-benzenacyclodecaphan-3-ene-2^4-carboxylic acid]",263
4,"CCO[C@H]1CCN2Cc3c(cc(C)c4[nH]ccc34)OCCCCCCCCCCOc3cc(C(=O)O)ccc3[C@@H]2C1 [Ex. 32, (21bS,23S)-23-ethoxy-4-methyl-7,8,9,10,11,12,13,14,15,16,21b,22,23,24,25,2 7-hexadecahydro-3H-benzo[7,8]pyrido[1′,2′:5,6][1,9,5]dioxaazacyclo-nonadecino[3,2-e]indole-19-carboxylic acid]",> 10000
5,"CCO[C@H]1CCN(Cc2c(OC)cc(C)c3[nH]ccc23)[C@H](c2ccc(C(=O)O)cc2OC)C1 [Ex. 3, 4-((2S,4S)-4-ethoxy-1-((5-methoxy-7-methyl-1H-indol-4-yl)methyl)piperidin-2-yl)-3-methoxybenzoic acid]",263
6,"COc1cc(C)c2[nH]ccc2c1CN1CC[C@H]2C[C@H]1c1ccc(C(=O)O)cc1/C=C/CCCCCCO2 [Ex. 38, (1^2R,1^4R,E)-11-((5-methoxy-7-methyl-1H-indol-4-yl)methyl)-1^1-oxa-1(2,4)-piperidina-2(1,2)-benzenacycloundecaphan-3-ene-2^4-carboxylic acid]",160
7,"COc1cc(C)c2[nH]ccc2c1CN1CC[C@H]2CC1c1ccc(C(=O)O)cc1CCCCCCCO2 [Ex. 39, (1^2S,1^4RS)-1^1-((5-methoxy-7-methyl-1H-indol-4-yl)methyl)-10-oxa-1(2,4)-piperidina-2(1,2)-benzenacyclodecaphane-2^4-carboxylic acid]",251
8,"CCO[C@H]1CCN2Cc3c(cc(C)c4[nH]ccc34)OCCCCCCCCCOc3cc(C(=O)O)ccc3[C@@H]2C1 [Ex. 31, (20bS,22S)-22-ethoxy-4-methyl-3,7,8,9,10,11,12,13,14,15,20b,21,22,23,24,26-hexadecahydrobenzo[7,8]pyrido[1′,2′:5,6][1,9, 5]dioxaazacyclooctadecino[3,2-e]indole-18-carboxylic acid]",2870

# Same assay, conditions: read-out: IC50
row,Structure (SMILES),IC50 [nM]
1,"COc1cc(C)c2[nH]ccc2c1CN1CCC2CC1c1ccc(C(=O)O)c3ccc(cc13)OCCCCCCO2 (centres unmarked) [Ex. 52, (1^2R,1^4R)-1^1-((5-methoxy-7-methyl-1H-indol-4-yl)methyl)-3,10-dioxa-1(2,4)-piperidina-2(1,7)-naphthalenacyclodecaphane-2^4-carboxylic acid]",> 10000
2,"COc1cc(C)c2[nH]ccc2c1CN1CC[C@H]2C[C@H]1c1ccc(C(=O)NS(C)(=O)=O)cc1CCCCCCCO2 [Ex. 71, (1^2S,1^4S)-1^1-((5-methoxy-7-methyl-1H-indol-4-yl)methyl)-N-(methylsulfonyl)-10-oxa-1(2,4)-piperidina-2(1,2)-benzenacyclodecaphane-2^4-carboxamide]",258
3,"COc1cc(C)c2[nH]ccc2c1CN1CC[C@H]2C[C@H]1c1ccc(C(=O)NS(=O)(=O)C3CC3)cc1OCCCCCO2 [Ex. 60, (1^2S,1^4S)—N-(cyclopropylsulfonyl)-1^1-((5-methoxy-7-methyl-1H-indol-4-yl)methyl)-3,9-dioxa-1(2,4)-piperidina-2(1,2)-benzenacyclononaphane-2^4-carboxamide]",231
4,"COc1cc(C)c2[nH]ccc2c1CN1CCC2CC1c1ccc(C(=O)O)cc1OCCCCCCO2 (centres unmarked) [Ex. 5, (1^2S,1^4S)-11-((5-methoxy-7-methyl-1H-indol-4-yl)methyl)-3,10-dioxa-1(2,4)-piperidina-2(1,2)-benzenacyclodecaphane-2^4-carboxylic acid]",262
5,"COc1cc(C)c2[nH]ccc2c1CN1CC[C@H]2C[C@H]1c1ccc(C(=O)NS(=O)(=O)c3ccccc3)cc1OCCCCCO2 [Ex. 70, (1^2S,1^4S)-1^1-((5-methoxy-7-methyl-1H-indol-4-yl)methyl)-N-(phenylsulfonyl)-3,9-dioxa-1(2,4)-piperidina-2(1,2)-benzenacyclononaphane-2^4-carboxamide]",543
6,"COc1cc(C)c2[nH]ccc2c1CN1CC[C@H]2C[C@H]1c1ccc(C(=O)O)cc1OCCCn1cc(nn1)CO2 [Ex. 13, (2^2S,2^4S,Z)-2^1-((5-methoxy-7-methyl-1H-indol-4-yl)methyl)-5′H-3,9-dioxa-2(2,4)-piperidina-5(4,1)-triazola-1(1,2)-benzenacyclononaphane-1^4-carboxylic acid]",1110
7,"COc1cc(C)c2[nH]ccc2c1CN1CC[C@H]2C[C@H]1c1ccc(C(=O)O)cc1OCCCCCCCO2 [Ex. 7, (1^2S,1^4S)_1^1-((5-methoxy-7-methyl-1H-indol-4-yl)methyl)-3,11-dioxa-1(2,4)-piperidina-2(1,2)-benzenacycloundecaphane-2^4-carboxylic acid]",384
8,"COc1cc(C)c2[nH]ccc2c1CN1CC[C@H]2C[C@H]1c1ccc(C(=O)NS(=O)(=O)C(C)C)cc1OCCCCCO2 [Ex. 66, (1^2S,1^4S)—N-(isopropylsulfonyl)-1^1-((5-methoxy-7-methyl-1H-indol-4-yl)methyl)-3,9-dioxa-1(2,4)-piperidina-2(1,2)-benzenacyclononaphane-2^4-carboxamide]",411
9,"COc1cc(C)c2[nH]ccc2c1CN1CC[C@H]2C[C@H]1c1ccc(-c3ccn[nH]3)cc1OCCCCCCO2 [Ex. 55, (1^2S,1^4S)-1^1-((5-methoxy-7-methyl-1H-indol-4-yl)methyl)-2^4-(1H-pyrazol-5-yl)-3,10-dioxa-1(2,4)-piperidina-2(1,2)-benzenacyclodecaphane]",2890
10,"COc1cc(C)c2[nH]ccc2c1CN1CC[C@H]2C[C@H]1c1ccc(C(=O)NS(C)(=O)=O)cc1/C=C\CCCCCO2 [Ex. 68, (1^2S,1^4S,Z)-1^1-((5-methoxy-7-methyl-1H-indol-4-yl)methyl) —N-(methylsulfonyl)-10-oxa-1(2,4)-piperidina-2(1,2)-benzenacyclodecaphan-3-ene-24-carboxamide]",674
11,"COc1cc(C)c2[nH]ccc2c1CN1CC[C@H]2C[C@H]1c1ccc(C(=O)O)cc1OCC/C=C\CO2 [Ex. 9, (1^2S,1^4S,Z)-1^1-((5-methoxy-7-methyl-1H-indol-4-yl)methyl)-3,9-dioxa-1(2,4)-piperidina-2(1,2)-benzenacyclononaphan-6-ene-2^4-carboxylic acid]",342
12,"COc1cc(C)c2[nH]ccc2c1CN1CC[C@H]2C[C@H]1c1ccc(C(=O)NS(=O)(=O)C3CCCC3)cc1OCCCCCCO2 [Ex. 62, (1^2S,1^4S)—N-(cyclopentylsulfonyl)-1^1-((5-methoxy-7-methyl-1H-indol-4-yl)methyl)-3,10-dioxa-1(2,4)-piperidina-2(1,2)-benzenacyclodecaphane-2^4-carboxamide]",293
13,"COc1cc(C)c2[nH]ccc2c1CN1CC[C@H]2C[C@H]1c1ccc(C(=O)O)cc1OCCCCCO2 [Ex. 8, (1^2S,1^4S)_1^1-((5-methoxy-7-methyl-1H-indol-4-yl)methyl)-3,9-dioxa-1(2,4)-piperidina-2(1,2)-benzenacyclononaphane-2^4-carboxylic acid]",397
14,"CNS(=O)(=O)c1ccc2c(c1)OCCCCCCO[C@H]1CCN(Cc3c(OC)cc(C)c4[nH]ccc34)[C@H]2C1 [Ex. 79, (1^2S,1^4S)-1^1-((5-methoxy-7-methyl-1H-indol-4-yl)methyl)-N-methyl-3,10-dioxa-1(2,4)-piperidina-2(1,2)-benzenacyclodecaphane-2^4-sulfonamide]",> 10000
15,"COc1cc(C)c2[nH]ccc2c1CN1CC[C@H]2C[C@H]1c1ccc(C(=O)O)cc1/C=C/CCCCCCCO2 [Ex. 64, (1^2S,1^4S,E)-1^1-((5-methoxy-7-methyl-1H-indol-4-yl)methyl)-12-oxa-1(2,4)-piperidina-2(1,2)-benzenacyclododecaphan-3-ene-2^4-carboxylic acid]",127
16,"COc1cc(C)c2c(ccn2C(=O)OC(C)(C)C)c1CN1CC[C@@H]2C[C@@H]1c1ccc(C(=O)O)c3ccc(cc13)OCCC/C=C/CO2 [Ex. 51, (1^2R,1^4R,E)-1^1-((1-(tert-butoxycarbonyl)-5-methoxy-7-methyl-1H-indol-4-yl)methyl)-3,10-dioxa-1(2,4)-piperidina-2(1,7)-naphthalenacyclodecaphan-7-ene-2^4-carboxylic acid]",> 10000
17,"COc1cc(C)c2[nH]ccc2c1CN1CC[C@H]2C[C@H]1c1ccc(C(=O)O)c3ccc(cc13)OCCCCCCO2 [Ex. 49, (1^2S,14S)-1^1-((5-methoxy-7-methyl-1H-indol-4-yl)methyl)-3,10-dioxa-1(2,4)-piperidina-2(1,7)-naphthalenacyclodecaphane-2^4-carboxylic acid]",208
18,"COc1cc(C)c2[nH]ccc2c1CN1CC[C@H]2C[C@H]1c1ccc(C(=O)NS(=O)(=O)c3ccccc3)cc1OCCCCCCO2 [Ex. 57, (1^2S,1^4S)-1^1-((5-methoxy-7-methyl-1H-indol-4-yl)methyl)-N-(phenylsulfonyl)-3,10-dioxa-1(2,4)-piperidina-2(1,2)-benzenacyclodecaphane-2^4-carboxamide]",153
